Source: ChEMBL document CHEMBL1795287, “Efficient synthesis of 3-O-thia-cPA and preliminary analysis of its biological activity toward autotaxin” (Bioorg Med Chem Lett, 2011)

Key:
Autotaxin (Homo sapiens) [1] = molecular target: Autotaxin (Homo sapiens) (UniProt Q13822); assay: Inhibition of human ATX catalytic activity in MDA-MB-231 cells using conditioned medium at 10 uM; assay type: cell-based
Autotaxin (Homo sapiens) [2] = molecular target: Autotaxin (Homo sapiens) (UniProt Q13822); assay: Inhibition of human ATX catalytic activity in MDA-MB-231 cells using conditioned medium; assay type: cell-based

Row | SMILES | inhibition (Autotaxin (Homo sapiens) [1]) [%] | inhibition (Autotaxin (Homo sapiens) [2])
1 | CCCCCCCCCCCCCCCC(=O)OCC1CSP(=O)(O)O1 (racemic) | 55 | Dose-dependent effect
2 | CCCCCC/C=C\CCCCCCCC(=O)OCC1COP(=O)(O)C1 (stereo not given) | 66 | 
3 | CCCCCCCC/C=C\CCCCCCCC(=O)OCC1CSP(=O)(O)O1 (racemic) | 55 | Dose-dependent effect
4 | CCCCCCCCCCCCCCCCCC(=O)OCC1CSP(=O)(O)O1 (racemic) | 55 | Dose-dependent effect
5 | CCCCCCCC/C=C\CCCCCCCC(=O)OCC1COP(=O)(O)O1 (stereo not given) | 25 | 
6 | CCCCCC/C=C\CCCCCCCC(=O)OCC1CSP(=O)(O)O1 (racemic) | 55 | Dose-dependent effect
